Test results published in publication PMC13070491, “Single-nucleus transcriptomics, pharmacokinetics, and pharmacodynamics of CDK4/6 and mTOR inhibition in a Phase 0/1 trial of recurrent high-grade glioma” (Neuro-Oncology, 2025).
Several values for one entry are separate records, joined by “and”; a condition that tells them apart may be missing. Equal values may be shown once.

Experiment: Plasma pharmacokinetic parameters (LC-MS/MS)
Conditions: plasma; for AUC(0-t) / Cmax / half-life / Tmax: human, oral; for AUC(0-t): Total Ribociclib AUClast; for Cmax: Total Ribociclib Cmax
Protocol: Pharmacokinetic evaluation was conducted as previously described[8] using a validated liquid chromatography with tandem mass spectrometry (LC-MS/MS) method.[16] […] CSF samples were intraoperatively collected.

## CN(C)C(=O)c1cc2cnc(Nc3ccc(N4CCNCC4)cn3)nc2n1C1CCCC1 [Ribociclib, ribociclib]
400 mg, Mean
  AUC(0-t): 18.5 µM·h
  Total Ribociclib CL/F: 62.22 L/h
  Total Ribociclib Tmax: 3.00 h
  Unbound Ribociclib Cmax: 0.29 µM
400 mg, Median
  AUC(0-t): 13.8 µM·h
  Cmax: 1.32 µM
  Total Ribociclib CL/F: 66.79 L/h
  Unbound Ribociclib Cmax: 0.23 µM
400 mg, Total Ribociclib T1/2, plasma, Mean
  half-life: 13.1 h
400 mg, Total Ribociclib T1/2, plasma, Median
  half-life: 11.4 h
400 mg, Unbound Ribociclib T1/2, plasma, Mean
  half-life: 11.3 h
400 mg, Unbound Ribociclib T1/2, plasma, Median
  half-life: 11.2 h
400 mg, Unbound Ribociclib T1/2, plasma, individual patients
  half-life: 7.04 h
400 mg, Unbound Ribociclib Tmax, Mean
  Tmax: 2.65 h
600 mg, Mean
  AUC(0-t): 28.4 µM·h
  Cmax: 2.19 µM
  Total Ribociclib CL/F: 59.77 L/h
  Unbound Ribociclib Cmax: 0.32 µM
  Unbound Ribociclib T1/2: 15.49 h
600 mg, Median
  Cmax: 1.81 µM
  Total Ribociclib CL/F: 55.14 L/h
  Unbound Ribociclib Cmax: 0.28 µM
600 mg, Total Ribociclib T1/2, plasma, Mean
  half-life: 17.3 h
600 mg, Total Ribociclib Tmax, Mean
  Tmax: 3.23 h
600 mg, Unbound Ribociclib T1/2, plasma, Median
  half-life: 11.5 h
600 mg, Unbound Ribociclib Tmax, Mean
  Tmax: 4.76 h
400 mg, individual patients
  Total Ribociclib CL/F: 65.30 L/h and 28.56 L/h and 68.28 L/h and 29.74 L/h and 83.61 L/h and 97.80 L/h
  Unbound Ribociclib Cmax: 0.31 µM and 0.69 µM and 0.15 µM and 0.26 µM and 0.12 µM and 0.19 µM
  Unbound Ribociclib T1/2: 15.62 h and 13.50 h and 9.01 h
600 mg, individual patients
  Total Ribociclib CL/F: 22.31 L/h and 79.68 L/h and 49.86 L/h and 52.45 L/h and 57.05 L/h and 59.00 L/h and 104.11 L/h and 29.22 L/h and 48.20 L/h and 71.59 L/h and 35.82 L/h and 156.41 L/h and 47.05 L/h and 55.14 L/h and 66.74 L/h and 66.55 L/h and 50.38 L/h and 59.19 L/h and 24.80 L/h
  Total Ribociclib Tmax: 3.98 h and 1.67 h and 4.00 h
  Unbound Ribociclib Cmax: 0.58 µM and 0.28 µM and 0.37 µM and 0.29 µM and 0.26 µM and 0.34 µM and 0.31 µM and 0.73 µM and 0.30 µM and 0.22 µM and 0.38 µM and 0.09 µM and 0.21 µM and 0.18 µM and 0.24 µM and 0.23 µM and 0.47 µM
  Unbound Ribociclib T1/2: 14.45 h and 9.00 h and 8.65 h and 15.15 h and 15.94 h and 42.32 h
